In patent publication US20060089378A1 (priority 2004, published 2006):
Like-named read-outs stand apart in the source and are kept apart here.

How the values were obtained:
Cannabinoid CB1 Receptor = molecular target: T1, Cannabinoid CB1 Receptor (Homo sapiens, UniProt P21554); assay: Binding assay for CB1 agonists or inverse agonists (radioligand competition, membranes of transfected SK-N-MC cells)
T1 construct: expressed in transfected cells

Cannabinoid CB2 Receptor = molecular target: T2, Cannabinoid CB2 Receptor (Homo sapiens, UniProt P34972); assay: Binding assay for CB2 agonists or inverse agonists (radioligand competition, membranes of transfected SK-N-MC cells); details: read-out: Cannabinoid CB2 Receptor Binding percent inhibition
T2 construct: expressed in transfected cells

CB1 receptor (human) = CB1 receptor (human) (Homo sapiens, UniProt P21554); assay: cell-based
CB1 receptor (human), sequence (P21554 whole entry): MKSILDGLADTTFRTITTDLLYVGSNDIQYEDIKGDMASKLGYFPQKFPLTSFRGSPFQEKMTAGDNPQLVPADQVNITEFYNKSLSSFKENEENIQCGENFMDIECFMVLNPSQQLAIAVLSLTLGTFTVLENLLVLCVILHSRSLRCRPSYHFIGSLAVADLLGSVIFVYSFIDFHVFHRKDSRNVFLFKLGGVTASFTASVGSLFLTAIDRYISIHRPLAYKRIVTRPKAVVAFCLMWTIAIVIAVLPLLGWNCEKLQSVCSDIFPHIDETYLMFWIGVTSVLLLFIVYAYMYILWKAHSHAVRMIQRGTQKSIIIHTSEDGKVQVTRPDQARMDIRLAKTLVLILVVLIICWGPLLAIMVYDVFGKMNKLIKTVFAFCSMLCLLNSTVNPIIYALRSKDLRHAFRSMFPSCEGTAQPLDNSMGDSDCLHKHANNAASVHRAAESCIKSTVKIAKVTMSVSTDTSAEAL

T1 sequence (P21554 whole entry): as above
T2 sequence (P34972 whole entry): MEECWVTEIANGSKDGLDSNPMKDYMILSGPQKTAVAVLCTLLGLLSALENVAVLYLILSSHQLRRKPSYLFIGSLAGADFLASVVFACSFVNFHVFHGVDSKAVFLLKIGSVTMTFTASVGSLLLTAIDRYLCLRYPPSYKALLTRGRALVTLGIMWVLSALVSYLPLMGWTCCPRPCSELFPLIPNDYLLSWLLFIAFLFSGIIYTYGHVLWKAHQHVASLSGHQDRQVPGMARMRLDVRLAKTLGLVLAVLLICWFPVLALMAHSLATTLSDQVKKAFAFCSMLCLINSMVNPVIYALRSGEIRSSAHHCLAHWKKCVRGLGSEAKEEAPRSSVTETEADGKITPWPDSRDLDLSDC

CCNC(=O)N1C/C(=C\c2ccc(F)cc2)c2c(c(C(=O)NN3CCCCC3)nn2-c2ccc(Cl)cc2Cl)C1 [Cpd 34, (7E)-1-(2,4-dichloro-phenyl)-7-(4-fluoro-benzylidene)-1,4,6,7-tetrahydro-pyrazolo[4,3-c]pyridine-3,5-dicarboxylic acid 5-ethylamide 3-piperidin-1-ylamide]
IC50 (Cannabinoid CB1 Receptor): 50 nM | inhibition at 0.2 µM (Cannabinoid CB2 Receptor): 12% | EC50 (CB1 receptor (human)): 9 nM

COc1ccc(/C=C2\CN(C(=O)OC(C)(C)C)Cc3c(C(=O)N[C@H](C)c4ccccc4)nn(-c4ccc(Cl)cc4Cl)c32)cc1 [Cpd 35, (7E)-1-(2,4-dichloro-phenyl)-7-(4-methoxy-benzylidene)-3-[(1R)-1-phenyl-ethylcarbamoyl]-1,4,6,7-tetrahydro-pyrazolo[4,3-c]pyridine-5-carboxylic acid tert-butyl ester]
IC50 (Cannabinoid CB1 Receptor): 20 nM | inhibition at 0.2 µM (Cannabinoid CB2 Receptor): 27% | EC50 (CB1 receptor (human)): 4 nM

COc1ccc(/C=C2\CN(C(=O)OC(C)(C)C)Cc3c(C(=O)NC(C)c4ccccn4)nn(-c4ccc(Cl)cc4Cl)c32)cc1 (stereo not drawn) [Cpd 36, (7E)-1-(2,4-dichloro-phenyl)-7-(4-methoxy-benzylidene)-3-(1-pyridin-2-yl-ethylcarbamoyl)-1,4,6,7-tetrahydro-pyrazolo[4,3-c]pyridine-5-carboxylic acid tert-butyl ester]
IC50 (Cannabinoid CB1 Receptor): 40 nM | inhibition at 0.2 µM (Cannabinoid CB2 Receptor): 27% | EC50 (CB1 receptor (human)): 6 nM

COc1ccc(/C=C2\CN(C(=O)OC(C)(C)C)Cc3c(C(=O)NN4CCCCC4)nn(-c4ccc(Cl)cc4Cl)c32)cc1 [Cpd 37, (7E)-1-(2,4-dichloro-phenyl)-7-(4-methoxy-benzylidene)-3-(piperidin-1-ylcarbamoyl)-1,4,6,7-tetrahydro-pyrazolo[4,3-c]pyridine-5-carboxylic acid tert-butyl ester]
IC50 (Cannabinoid CB1 Receptor): 90 nM | inhibition at 0.2 µM (Cannabinoid CB2 Receptor): 27% | EC50 (CB1 receptor (human)): 5 nM

COc1ccc(/C=C2\CNCc3c(C(=O)N[C@H](C)c4ccccc4)nn(-c4ccc(Cl)cc4Cl)c32)cc1 [Cpd 38, (7E)-1-(2,4-dichloro-phenyl)-7-(4-methoxy-benzylidene)-4,5,6,7-tetrahydro-1H-pyrazolo[4,3-c]pyridine-3-carboxylic acid [(1R)-1-phenyl-ethyl]-amide]
IC50 (Cannabinoid CB1 Receptor): 10 nM | inhibition at 0.2 µM (Cannabinoid CB2 Receptor): 25% | EC50 (CB1 receptor (human)): 5 nM

C[C@@H](NC(=O)c1nn(-c2ccc(Cl)cc2Cl)c2c1CN(S(=O)(=O)N(C)C)C/C2=C\c1ccc(F)cc1)c1ccccc1 [Cpd 39, (7E)-1-(2,4-dichloro-phenyl)-5-dimethylsulfamoyl-7-(4-fluoro-benzylidene)-4,5,6,7-tetrahydro-1H-pyrazolo[4,3-c]pyridine-3-carboxylic acid [(1R)-1-phenyl-ethyl]-amide]
IC50 (Cannabinoid CB1 Receptor): 2 nM | inhibition at 0.2 µM (Cannabinoid CB2 Receptor; test concentration of 0.2 μM, compounds without an IC50 binding value): 42% | EC50 (CB1 receptor (human)): 1 nM

COc1ccc(/C=C2\CN(S(C)(=O)=O)Cc3c(C(=O)N[C@H](C)c4ccccc4)nn(-c4ccc(Cl)cc4Cl)c32)cc1 [Cpd 40, (7E)-1-(2,4-dichloro-phenyl)-5-methanesulfonyl-7-(4-methoxy-benzylidene)-4,5,6,7-tetrahydro-1H-pyrazolo[4,3-c]pyridine-3-carboxylic acid [(1R)-1-phenyl-ethyl]-amide]
IC50 (Cannabinoid CB1 Receptor): 2 nM | inhibition at 0.2 µM (Cannabinoid CB2 Receptor): 47% | EC50 (CB1 receptor (human)): 1 nM

CCNC(=O)N1C/C(=C\c2ccc(OC)cc2)c2c(c(C(=O)N[C@H](C)c3ccccc3)nn2-c2ccc(Cl)cc2Cl)C1 [Cpd 41, (7E)-1-(2,4-dichloro-phenyl)-7-(4-methoxy-benzylidene)-1,4,6,7-tetrahydro-pyrazolo[4,3-c]pyridine-3,5-dicarboxylic acid 5-ethylamide 3-{[(1R)-1-phenyl-ethyl]-amide}]
IC50 (Cannabinoid CB1 Receptor): 9 nM | inhibition at 0.2 µM (Cannabinoid CB2 Receptor): 27% | EC50 (CB1 receptor (human)): 0.2 nM

COc1ccc(/C=C2\CN(C(C)=O)Cc3c(C(=O)N[C@H](C)c4ccccc4)nn(-c4ccc(Cl)cc4Cl)c32)cc1 [Cpd 42, (7E)-5-acetyl-1-(2,4-dichloro-phenyl)-7-(4-methoxy-benzylidene)-4,5,6,7-tetrahydro-1H-pyrazolo[4,3-c]pyridine-3-carboxylic acid [(1R)-1-phenyl-ethyl]-amide]
IC50 (Cannabinoid CB1 Receptor): 5 nM | inhibition at 0.2 µM (Cannabinoid CB2 Receptor): 38% | EC50 (CB1 receptor (human)): 1 nM

CCOC(=O)CN1C/C(=C\c2ccc(F)cc2)c2c(c(C(=O)N[C@H](C)c3ccccc3)nn2-c2ccc(Cl)cc2Cl)C1 [Cpd 43, (7E)-[1-(2,4-dichloro-phenyl)-7-(4-fluoro-benzylidene)-3-[(1R)-1-phenyl-ethylcarbamoyl]-1,4,6,7-tetrahydro-pyrazolo[4,3-c]pyridin-5-yl]-acetic acid ethyl ester]
IC50 (Cannabinoid CB1 Receptor): 2 nM | inhibition at 0.2 µM (Cannabinoid CB2 Receptor): 36% | EC50 (CB1 receptor (human)): 0.6 nM

COC(=O)N1C/C(=C\c2ccc(OC)cc2)c2c(c(C(=O)N[C@H](C)c3ccccc3)nn2-c2ccc(Cl)cc2Cl)C1 [Cpd 44]
IC50 (Cannabinoid CB1 Receptor): 2 nM | inhibition at 0.2 µM (Cannabinoid CB2 Receptor): 69% | EC50 (CB1 receptor (human)): 0.2 nM

COc1ccc(/C=C2\CN(C=O)Cc3c(C(=O)N[C@H](C)c4ccccc4)nn(-c4ccc(Cl)cc4Cl)c32)cc1 [Cpd 45, (7E)-1-(2,4-dichloro-phenyl)-5-formyl-7-(4-methoxy-benzylidene)-4,5,6,7-tetrahydro-1H-pyrazolo[4,3-c]pyridine-3-carboxylic acid [(1R)-1-phenyl-ethyl]-amide]
IC50 (Cannabinoid CB1 Receptor): 3 nM | inhibition at 0.2 µM (Cannabinoid CB2 Receptor): 45% | EC50 (CB1 receptor (human)): 0.1 nM

C[C@@H](NC(=O)c1nn(-c2ccc(Cl)cc2Cl)c2c1CN(C=O)C/C2=C\c1ccc(F)cc1)c1ccccc1 [Cpd 46, (7E)-1-(2,4-dichloro-phenyl)-7-(4-fluoro-benzylidene)-5-formyl-4,5,6,7-tetrahydro-1H-pyrazolo[4,3-c]pyridine-3-carboxylic acid [(1R)-1-phenyl-ethyl]-amide]
IC50 (Cannabinoid CB1 Receptor): 6 nM | inhibition at 0.2 µM (Cannabinoid CB2 Receptor): 18% | EC50 (CB1 receptor (human)): 0.1 nM

CCOC(=O)CN1C/C(=C\c2ccc(OC)cc2)c2c(c(C(=O)N[C@H](C)c3ccccc3)nn2-c2ccc(Cl)cc2Cl)C1 [Cpd 48, (7E)-[1-(2,4-dichloro-phenyl)-7-(4-methoxy-benzylidene)-3-[(1R)-1-phenyl-ethylcarbamoyl]-1,4,6,7-tetrahydro-pyrazolo[4,3-c]pyridin-5-yl]-acetic acid ethyl ester]
IC50 (Cannabinoid CB1 Receptor): 4 nM | inhibition at 0.2 µM (Cannabinoid CB2 Receptor): 38% | EC50 (CB1 receptor (human)): 0.2 nM

COc1ccc(/C=C2\CNCc3c(C(=O)NC(C)c4ccccn4)nn(-c4ccc(Cl)cc4Cl)c32)cc1 (stereo not drawn) [Cpd 49, (7E)-1-(2,4-dichloro-phenyl)-7-(4-methoxy-benzylidene)-4,5,6,7-tetrahydro-1H-pyrazolo[4,3-c]pyridine-3-carboxylic acid (1-pyridin-2-yl-ethyl)-amide]
IC50 (Cannabinoid CB1 Receptor): 100 nM | inhibition at 0.2 µM (Cannabinoid CB2 Receptor): 19% | EC50 (CB1 receptor (human)): 1 nM

COc1ccc(/C=C2\CNCc3c(C(=O)NN4CCCCC4)nn(-c4ccc(Cl)cc4Cl)c32)cc1 [Cpd 50, (7E)-1-(2,4-dichloro-phenyl)-7-(4-methoxy-benzylidene)-4,5,6,7-tetrahydro-1H-pyrazolo[4,3-c]pyridine-3-carboxylic acid piperidin-1-ylamide]
IC50 (Cannabinoid CB1 Receptor): 100 nM | inhibition at 0.2 µM (Cannabinoid CB2 Receptor): 20% | EC50 (CB1 receptor (human)): 2 nM

COc1ccc(/C=C2\CN(S(C)(=O)=O)Cc3c(C(=O)NN4CCCCC4)nn(-c4ccc(Cl)cc4Cl)c32)cc1 [Cpd 53, (7E)-1-(2,4-dichloro-phenyl)-5-methanesulfonyl-7-(4-methoxy-benzylidene)-4,5,6,7-tetrahydro-1H-pyrazolo[4,3-c]pyridine-3-carboxylic acid piperidin-1-ylamide]
IC50 (Cannabinoid CB1 Receptor): 30 nM | inhibition at 0.2 µM (Cannabinoid CB2 Receptor): 29% | EC50 (CB1 receptor (human)): 5 nM
